ChEMBL document CHEMBL3259796, “Synthesis and in-vivo hypolipidemic activity of some novel substituted phenyl isoxazol phenoxy acetic acid derivatives” (Bioorg Med Chem Lett, 2014)

Experiments:
[1] = test system: Rattus norvegicus; assay: Hypolipidemic activity in triton WR-1339 Wistar rat assessed as total cholesterol at 250 mg/kg, po for 7 days (reference value: 209 +/- 1.45 mg/dl); type: functional
[2] = Retardation factor of the compound using ethyl acetate/n-hexane at 1:1 ratio; type: physicochemical
[3] = test system: Rattus norvegicus; assay: Hypolipidemic activity in triton WR-1339 Wistar rat assessed as low-density lipoprotein at 250 mg/kg, po for 7 days (reference value: 154 +/- 1.82 mg/dl); type: functional
[4] = test system: Rattus norvegicus; assay: Hypolipidemic activity in triton WR-1339 Wistar rat assessed as very low-density lipoprotein at 250 mg/kg, po for 7 days (reference value: 38 +/- 1.80 mg/dl); type: functional
[5] = test system: Rattus norvegicus; assay: Hypolipidemic activity in triton WR-1339 Wistar rat assessed as atherogenic index at 250 mg/kg, po for 7 days (reference value: 10.18 no unit); type: functional
[6] = test system: Rattus norvegicus; assay: Hypolipidemic activity in triton WR-1339 Wistar rat assessed as increase in protection at 250 mg/kg, po for 7 days; type: functional
[7] = test system: Rattus norvegicus; assay: Hypolipidemic activity in triton WR-1339 Wistar rat assessed as high-density lipoprotein at 250 mg/kg, po for 7 days (reference value: 17 +/- 1.70 mg/dl); type: functional
[8] = test system: Rattus norvegicus; assay: Hypolipidemic activity in triton WR-1339 Wistar rat assessed as triglyceride at 250 mg/kg, po for 7 days (reference value: 190 +/- 1.98 mg/dl); type: functional
[9] = Retardation factor of the compound using chloroform/methanol at 4:1 ratio; type: physicochemical

Structure (SMILES) | Activity [1] [mg/dL] | Rf [2] | Activity [3] [mg/dL] | Activity [4] [mg/dL] | AI [5] | Activity [6] [%] | Activity [7] [mg/dL] | Activity [8] [mg/dL] | Rf [9]
O=C(O)COc1ccc(-c2cc(-c3ccccc3)no2)cc1 | 88 | 0.56 | 11.1 | 26.4 | 2.26 | 77.8 | 40.5 | 132 | 
O=C(/C=C/c1ccccc1O)c1ccccc1 |  |  |  |  |  |  |  |  | 0.49
Oc1ccc(-c2cc(-c3c(Cl)cccc3Cl)no2)cc1 |  | 0.58 |  |  |  |  |  |  | 
Oc1ccc(-c2cc(-c3ccccc3Cl)no2)cc1 |  | 0.6 |  |  |  |  |  |  | 
Oc1ccc(-c2cc(-c3ccc(F)cc3)on2)cc1 |  | 0.5 |  |  |  |  |  |  | 
O=C(O)COc1ccc(-c2cc(-c3ccco3)no2)cc1 | 87 | 0.46 | 22.4 | 22.6 | 1.69 | 83.4 | 42 | 113 | 
O=C(/C=C/c1ccccc1)c1ccc(O)cc1 [4'-HYDROXYCHALCONE] |  |  |  |  |  |  |  |  | 0.53
O=C(/C=C/c1ccc(Cl)cc1)c1ccc(O)cc1 |  |  |  |  |  |  |  |  | 0.56
O=C(/C=C/c1ccc(O)cc1)c1ccc(F)cc1 |  |  |  |  |  |  |  |  | 0.62
Oc1ccc(-c2cc(-c3ccccc3)no2)cc1 |  | 0.56 |  |  |  |  |  |  | 
O=C(O)COc1ccc(-c2cc(-c3ccc(F)cc3)on2)cc1 | 81 | 0.52 | 16.4 | 21.1 | 1.43 | 85.95 | 43.5 | 105.5 | 
COc1cc(-c2cc(-c3ccc(OCC(=O)O)cc3)on2)cc(OC)c1OC | 82.5 | 0.51 | 29 | 25.5 | 2.09 | 79.47 | 40.5 | 125 | 
CC(C)OC(=O)C(C)(C)Oc1ccc(C(=O)c2ccc(Cl)cc2)cc1 [FENOFIBRATE] | 116.5 |  | 48.2 | 23.8 |  | 83.6 | 44.5 | 119 | 
O=C(/C=C/c1c(Cl)cccc1Cl)c1ccc(O)cc1 |  |  |  |  |  |  |  |  | 0.52
COc1cc(/C=C/C(=O)c2ccccc2)ccc1O |  |  |  |  |  |  |  |  | 0.54
COc1cc(-c2cc(-c3ccccc3)on2)ccc1O |  | 0.57 |  |  |  |  |  |  | 

Structure (SMILES) | Activity [1] [mg/dL] | Rf [2] | Activity [3] [mg/dL] | Activity [4] [mg/dL] | AI [5] | Activity [6] [%] | Activity [7] [mg/dL] | Activity [8] [mg/dL] | Rf [9]
Oc1ccc(-c2cc(-c3ccco3)no2)cc1 |  | 0.61 |  |  |  |  |  |  | 
O=C(O)COc1ccc(-c2cc(-c3c(Cl)cccc3Cl)no2)cc1 | 90 | 0.5 | 22.8 | 22.7 | 1.55 | 84.77 | 44.5 | 113.5 | 
Oc1ccc(-c2cc(-c3ccc(Cl)cc3)no2)cc1 |  | 0.6 |  |  |  |  |  |  | 
Oc1ccccc1-c1cc(-c2ccccc2)on1 |  | 0.6 |  |  |  |  |  |  | 
O=C(O)COc1ccc(-c2cc(-c3ccccc3Cl)no2)cc1 | 148.5 | 0.48 | 86.5 | 22 | 1.75 | 82.81 | 40 | 110 | 
COc1cc(/C=C/C(=O)c2ccc(O)cc2)cc(OC)c1OC |  |  |  |  |  |  |  |  | 0.48
O=C(/C=C/c1ccco1)c1ccc(O)cc1 |  |  |  |  |  |  |  |  | 0.61
COc1cc(-c2cc(-c3ccccc3)on2)ccc1OCC(=O)O | 94 | 0.56 | 25 | 23 | 1.5 | 85.27 | 46 | 115 | 
COc1ccccc1-c1cc(-c2ccc(O)cc2)on1 |  | 0.59 |  |  |  |  |  |  | 
COc1ccccc1-c1cc(-c2ccc(OCC(=O)O)cc2)on1 | 77.5 | 0.45 | 10.5 | 23.5 | 1.64 | 83.89 | 44.5 | 117.5 | 
COc1ccccc1/C=C/C(=O)c1ccc(O)cc1 |  |  |  |  |  |  |  |  | 0.51
O=C(O)COc1ccccc1-c1cc(-c2ccccc2)on1 | 91 | 0.52 | 23.3 | 25.2 | 1.91 | 81.24 | 42.5 | 123.5 | 
COc1cc(-c2cc(-c3ccc(O)cc3)on2)cc(OC)c1OC |  | 0.63 |  |  |  |  |  |  | 
O=C(/C=C/c1ccccc1Cl)c1ccc(O)cc1 |  |  |  |  |  |  |  |  | 0.6
O=C(O)COc1ccc(-c2cc(-c3ccc(Cl)cc3)no2)cc1 | 83.5 | 0.53 | 16.2 | 26.3 | 2.21 | 78.29 | 41 | 131.5 | 
